According to PubChem BioAssay (NCI):
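All cell lines were grown in 96-well plates and treated with compound for 48 hours. TGI: concentration producing complete growth inhibition.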

Columns and labels:
Experiment in all cases: NCI anticancer screen, dose series, 48 h
CCRF-CEM leukemia = tested on: CCRF-CEM leukemia
MCF7 breast = tested on: MCF7 breast
SK-MEL-5 melanoma = tested on: SK-MEL-5 melanoma
HT29 colon = tested on: HT29 colon
T-47D breast = tested on: T-47D breast
OVCAR-3 ovarian = tested on: OVCAR-3 ovarian
786-0 renal = tested on: 786-0 renal
NCI/ADR-RES ovarian = tested on: NCI/ADR-RES ovarian
SF-295 CNS = tested on: SF-295 CNS
UACC-257 melanoma = tested on: UACC-257 melanoma

Row | SMILES | TGI (CCRF-CEM leukemia) | TGI (MCF7 breast) | TGI (SK-MEL-5 melanoma) | TGI (HT29 colon) | TGI (T-47D breast) | TGI (OVCAR-3 ovarian) | TGI (786-0 renal) | TGI (NCI/ADR-RES ovarian) | TGI (SF-295 CNS) | TGI (UACC-257 melanoma)
1 | COc1ccccc1NC(=O)CC(=O)NN | > 100 µM | > 100 µM | > 100 µM | > 100 µM | > 100 µM | > 100 µM | > 100 µM | > 100 µM | > 100 µM | > 100 µM
2 | O=C1/C(=C/c2cccc3ccccc23)CCc2ccc([N+](=O)[O-])cc21 | > 100 µM | 86.5 µM | – | – | > 100 µM | 12.7 µM | 65.5 µM | > 100 µM | 31.1 µM | –
3 | OC(NN=C1CCCC1)(C(F)(F)Cl)C(F)(F)Cl | > 10 µM | > 10 µM | > 10 µM | > 10 µM | > 10 µM | > 10 µM | > 10 µM | > 10 µM | > 10 µM | > 10 µM
4 | CCNc1cc2c3c(c1)CCN3CCC2 | > 10 µM | > 10 µM | > 10 µM | > 10 µM | > 10 µM | > 10 µM | > 10 µM | > 10 µM | > 10 µM | > 10 µM
5 | CC(C)CCOC(=O)NC(Nc1ccc(F)cc1)(C(F)(F)F)C(F)(F)F | 99.5 µM | > 100 µM | > 100 µM | > 100 µM | 78.5 µM | > 100 µM | > 100 µM | > 100 µM | > 100 µM | > 100 µM
6 | O=C(O)/C=C\C(=O)Nn1c(Cc2ccc(Cl)cc2)n[nH]c1=O | > 100 µM | > 100 µM | > 100 µM | > 100 µM | > 100 µM | > 100 µM | > 100 µM | > 100 µM | > 100 µM | > 100 µM
7 | C=C1CC(C)(c2cccc(Nc3nc4ccccc4c4occc34)c2)OC1=O (stereo unspecified) | 5.08 µM | 16.4 µM | 28.3 µM | 16.6 µM | 20.5 µM | 17.5 µM | 3.08 µM | 26.8 µM | 34.9 µM | 3.47 µM
8 | CC1(C)CC[C@]2(C(=O)O)CC[C@]3(C)[C@H](C(=O)C=C4[C@@]5(C)C=C(C#N)C(=O)C(C)(C)[C@@H]5CC[C@]43C)[C@@H]2C1 | > 100 µM | 5.14 µM | 1.69 µM | 6.43 µM | 4.34 µM | 0.785 µM | 3.39 µM | 4.68 µM | 1.97 µM | 2.84 µM
9 | CC1(C)Oc2ccc3c(=O)cc(-c4ccccc4)oc3c2C1C(=O)O (stereo unspecified) | > 100 µM | > 100 µM | > 100 µM | > 100 µM | > 100 µM | > 100 µM | > 100 µM | > 100 µM | > 100 µM | > 100 µM
10 | COC(=O)Cn1cnc2c(Cl)nc(Nc3ccccc3)nc21 | 96.7 µM | > 100 µM | > 100 µM | > 100 µM | > 100 µM | 50.7 µM | > 100 µM | > 100 µM | > 100 µM | > 100 µM
11 | Clc1ccc(C2=CCN3CC=C(c4ccc(Cl)cc4)C23)cc1 | 52 µM | 28.6 µM | 13.5 µM | 17.8 µM | 29.2 µM | 25.1 µM | 24.1 µM | 26.9 µM | 28.9 µM | 24.2 µM
12 | CC(CNC(N)=O)NC(N)=O (stereo unspecified) | > 100 µM | > 100 µM | > 100 µM | > 100 µM | > 100 µM | > 100 µM | > 100 µM | > 100 µM | > 100 µM | > 100 µM
13 | NCCSCCC(=O)O | > 100 µM | > 100 µM | > 85.3 µM | > 100 µM | > 84.2 µM | > 100 µM | > 100 µM | > 100 µM | > 92.3 µM | > 100 µM
14 | Oc1ccc(Oc2cc3c(cc2Oc2ccc(O)cc2)-c2nc-3nc3[nH]c(nc4nc(nc5[nH]c(n2)c2cc(Oc6ccc(O)cc6)c(Oc6ccc(O)cc6)cc52)-c2cc(Oc5ccc(O)cc5)c(Oc5ccc(O)cc5)cc2-4)c2cc(Oc4ccc(O)cc4)c(Oc4ccc(O)cc4)cc32)cc1 | > 100 µM | > 100 µM | > 100 µM | > 100 µM | > 100 µM | > 100 µM | > 100 µM | > 100 µM | 95.6 µM | > 100 µM
15 | NC(=S)NC/C=C/Cl | > 100 µM | > 100 µM | > 100 µM | > 100 µM | > 100 µM | > 100 µM | > 100 µM | > 100 µM | > 100 µM | > 100 µM
16 | COC1=CC(=O)N(C)C(O)C1(C#N)OC1OC(CO)C(O)C(O)C1O (stereo unspecified) | > 10 µM | > 100 µM | > 100 µM | > 10 µM | > 100 µM | > 100 µM | > 100 µM | > 100 µM | > 100 µM | > 100 µM
17 | COc1cccc(C2c3cc4c(cc3OC(Nc3ccccc3)C2C)OCO4)c1O (stereo unspecified) | 16.6 µM | > 75 µM | 17.7 µM | 37.7 µM | > 75.4 µM | 29.9 µM | 32.1 µM | > 100 µM | 18.7 µM | > 57.8 µM
18 | CC(=O)OC[C@H]1On2nnnc2[C@H](OC(C)=O)[C@@H](OC(C)=O)[C@@H]1OC(C)=O | > 100 µM | > 100 µM | > 100 µM | > 100 µM | > 100 µM | > 100 µM | > 100 µM | > 100 µM | > 100 µM | > 100 µM
19 | S=C1SC(=Nc2ccccc2)C(=Nc2ccccc2)N1c1ccc2ccccc2c1 | > 100 µM | > 100 µM | > 100 µM | – | > 100 µM | > 100 µM | – | > 100 µM | > 100 µM | –
20 | Cc1ccc(S(=O)(=O)NC(=O)C2=C3SCCN3C(=O)N(S(=O)(=O)c3ccc(C)cc3)C2c2ccccc2)cc1 (stereo unspecified) | 60.5 µM | 90.7 µM | – | > 100 µM | > 100 µM | 59.1 µM | > 100 µM | > 100 µM | > 100 µM | > 100 µM
21 | Clc1cc(Cl)ncn1 | > 100 µM | > 100 µM | > 100 µM | > 100 µM | > 100 µM | > 100 µM | > 100 µM | > 100 µM | > 100 µM | –
22 | Cc1ncc(COP(=O)(O)O)c(/C=C2\SC(=S)NC2=O)c1O | – | > 100 µM | > 100 µM | > 100 µM | > 100 µM | > 100 µM | > 100 µM | > 100 µM | > 100 µM | > 100 µM
